The test system of assay [1] is MCF7. The assay can be described thus: Antiproliferative activity against human MCF7 cells assessed as cell viability at 75 uM after 72 hrs relative to control. The assay is classed as functional. The note with it: MCF7, 72 h.
Assay [2] concerns MCF7. The assay can be described thus: Antiproliferative activity against human MCF7 cells after 72 hrs. The format is functional, cell-based.
A further assay relates to HT-29. The assay is described as follows: Antiproliferative activity against human HT-29 cells assessed as cell viability at 75 uM after 72 hrs relative to control. The note with it: HT-29, 72 h. The format is functional.
Another assay concerns HeLa. The assay is described as follows: Antiproliferative activity against human HeLa cells assessed as cell viability at 75 uM after 72 hrs relative to control. The format is functional.
The next assay concerns SK-OV-3. The assay is described as follows: Antiproliferative activity against human SKOV3 cells assessed as cell viability at 75 uM after 72 hrs relative to control. The assay is classed as functional. The note with it: SK-OV-3, 72 h.

Take `CCOC(=O)C(c1ccc(OC)cc1)C(c1ccc(O)cc1)c1ccc(O)cc1` (stereo not drawn): in the assay on MCF7 [1], the inhibition at 75 µM was 75%.

Consider `CCOC(=O)C(c1cccc(OC)c1)C(c1ccc(O)cc1)c1ccc(O)cc1` (stereo not drawn), for which the IC50 in the assay with MCF7 [2] (Homo sapiens, MCF7, 72 h) amounted to 85.1 µM. The inhibition at 75 µM in the assay on MCF7 [1], with HT-29, in the assay on HeLa and with SK-OV-3 was 80% each time.

In the assay with MCF7 [2] (Homo sapiens, MCF7, 72 h), `CCOC(=O)C(c1ccc(C)cc1)C(c1ccc(O)cc1)c1ccc(O)cc1` (stereo not drawn) gave a concentration for half-maximal inhibition (IC50) of 78.7 µM. The inhibition at 75 µM in the assay on MCF7 [1], in the assay on HT-29, in the assay with HeLa and in the assay on SK-OV-3 was 80% throughout.

`CCOC(=O)C(c1ccccc1)C(c1ccc(O)cc1)c1ccc(O)cc1` (stereo not drawn): it took 80.6 µM to reach half-maximal inhibition with MCF7 [2] (Homo sapiens, MCF7, 72 h) (IC50). Moreover, the inhibition at 75 µM in the assay on MCF7 [1], in the assay with HT-29, with HeLa and in the assay on SK-OV-3 was 80% in each case.

Turning to `CCOC(=O)C(c1ccc(O)c(OC)c1)C(c1ccc(O)cc1)c1ccc(O)cc1` (stereo not drawn), the inhibition at 75 µM with MCF7 [1] turned out to be 75%.

In the case of `OCC(c1ccccc1)C(c1ccc(O)cc1)c1ccc(O)cc1` (stereo not drawn), the inhibition at 75 µM in the assay with MCF7 [1], in the assay with HT-29, in the assay on HeLa and in the assay with SK-OV-3 was 80% throughout.

On to `COc1cc(C(CO)C(c2ccc(O)c(OC)c2)c2ccc(O)c(OC)c2)ccc1O` (stereo in doubt), for which the IC50 with MCF7 [2] (Homo sapiens, MCF7, 72 h) was found to be 104 µM.

With `COc1cc(C(CO)C(c2ccc(O)c(OC)c2)c2ccc(O)c(OC)c2)ccc1O` (stereo in doubt; 9a), the IC50 with MCF7 [2] (mcf7) amounted to 103 µM.

A word on the inhibition: it is the share of the control response that was lost under treatment. As usually defined, the IC50 is the concentration that inhibits the measured activity by half.

The values are drawn from ChEMBL document CHEMBL2424626, “Synthesis and antiproliferative activities of quebecol and its analogs” (Bioorg Med Chem Lett, 2013).
